Measured values: US6734205B2, “Substituted guanidine derivatives” (Sumitomo Pharmaceuticals Company Limited, priority 1999, dated 2004)
Counter-ions that a name gives are not always drawn.

Experiments:
[1] = target: T1, Na^+/H^+ exchange transport system (Rattus norvegicus, UniProt P26431); assay: Inhibitory effect on the Na^+/H^+ exchange transport system (in vitro), pH change in isolated ventricular myocytes under an acidic load; type: cell-based
T1 construct: a pH change in isolated ventricular myocytes (rat) under an acidic load; endogenous in cells; host or cells: isolated rat ventricular myocytes
Description: Inhibitory Effect on the Na^+/H^+ Exchange Transport System (in vitro)
A test was carried out according to the method of Iemori et al. (J. Hypertension, 8, 153(1990)). In detail, inhibitory effect on the Na^+/H^+ exchange transport system was evaluated by using as an indication a pH change in isolated ventricular myocytes (rat) under an acidic load.

T1 sequence (P26431 whole entry): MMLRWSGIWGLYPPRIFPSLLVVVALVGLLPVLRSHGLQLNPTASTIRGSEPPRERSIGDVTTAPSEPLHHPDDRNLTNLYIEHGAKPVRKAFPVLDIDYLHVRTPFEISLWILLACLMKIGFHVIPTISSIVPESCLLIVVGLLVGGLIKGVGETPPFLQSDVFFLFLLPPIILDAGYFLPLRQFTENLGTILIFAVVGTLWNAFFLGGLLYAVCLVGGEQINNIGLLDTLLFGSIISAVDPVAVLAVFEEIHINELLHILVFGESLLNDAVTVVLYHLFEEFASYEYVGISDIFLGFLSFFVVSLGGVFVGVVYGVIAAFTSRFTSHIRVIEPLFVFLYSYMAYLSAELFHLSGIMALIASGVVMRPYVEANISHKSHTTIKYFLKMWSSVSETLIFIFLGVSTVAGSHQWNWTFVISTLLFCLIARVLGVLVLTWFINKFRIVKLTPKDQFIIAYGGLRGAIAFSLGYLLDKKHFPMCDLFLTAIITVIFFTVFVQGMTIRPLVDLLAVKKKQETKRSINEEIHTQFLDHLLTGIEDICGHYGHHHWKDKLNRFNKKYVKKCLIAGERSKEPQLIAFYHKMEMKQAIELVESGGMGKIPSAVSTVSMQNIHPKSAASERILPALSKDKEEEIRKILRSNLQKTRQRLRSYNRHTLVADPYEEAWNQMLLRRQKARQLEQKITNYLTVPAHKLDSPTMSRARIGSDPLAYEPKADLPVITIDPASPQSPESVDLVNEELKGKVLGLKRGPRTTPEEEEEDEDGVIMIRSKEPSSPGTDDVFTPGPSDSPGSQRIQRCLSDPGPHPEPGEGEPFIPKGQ

SMILES	IC50 [1] [nM]	melting point
Cc1cc(OS(=O)(=O)O)cc2c1cc(C(=O)NC(=N)N)n2C [Example 2, 2-[[[Amino(imino)methyl]amino]carbonyl]-1,4-dimethyl-1H-indol-6-yl Hydrogen Sulfate]	70	
Cn1c(C(=O)NC(=N)N)cc2c(Cl)cc(CP(=O)(O)O)cc21 [Example 17, [2-[[[Amino(imino)methyl]amino]carbonyl]-4-chloro-1-methyl-1H-indol-6-yl]methylphosphonic Acid]		265 to 282 °C (dec.)
Cn1c(C(=O)NC(=N)N)cc2c(C(F)(F)F)cc(CP(=O)(O)O)cc21 [Example 15, [2-[[[amino(imino)methyl]amino]-carbonyl]-1-methyl-4-(trifluoromethyl)-1H-indol-6-yl]-methylphosphonic Acid]		231 to 266 °C (dec.)
Cn1c(C(=O)NC(=N)N)cc2c(Cl)cc(OCCCS(=O)(=O)O)cc21 [Example 34, 3-[[2-[[[Amino(imino)methyl]amino]carbonyl]-4-chloro-1-methyl-1H-indol-6-yl]oxy]-1-propanesulfonic Acid]		325 °C (dec.)
Cn1c(C(=O)NC(=N)N)cc2c(Cl)cc(OCC(=O)O)cc21 [Example 23, [[2-[[[Amino(imino)methyl]amino]carbonyl]-4-chloro-1-methyl-1H-indol-6-yl]oxy]acetic Acid]		257 to 260 °C (dec.)
Cn1c(C(=O)NC(=N)N)cc2c(C(F)(F)F)cc(CS(=O)(=O)O)cc21 [Example 37, [2-[[[amino(imino)methyl]amino]-carbonyl]-1-methyl-4-(trifluoromethyl)-1H-indol-6-yl]-methanesulfonic Acid]		≥ 300 °C
Cn1c(C(=O)NC(=N)N)cc2c(Cl)ccc(OCC(=O)O)c21 [Example 24, [[2-[[[Amino(imino)methyl]amino]carbonyl]-4-chloro-1-methyl-1H-indol-7-yl]oxy]acetic Acid]		210 to 225 °C (dec.)
Cn1c(C(=O)NC(=N)N)cc2c(C(F)(F)F)cc(CCS(=O)(=O)O)cc21 [Example 39, 2-[2-[[[amino(imino)methyl]-amino]carbonyl]-1-methyl-4-(trifluoromethyl)-1H-indol-6-yl]ethanesulfonic Acid]		≥ 300 °C
Cc1cc(OS(=O)(=O)O)cc2c1cc(C(=O)NC(=N)N)n2C (as salt: sulfate) [Example 2, 2-[[[Amino(imino)methyl]amino]carbonyl]-1,4-dimethyl-1H-indol-6-yl Hydrogen Sulfate]		303 to 304 °C (dec.)

Continued, values first:

IC50 [1] [nM]	melting point	SMILES
10000		Cc1c(OS(=O)(=O)O)ccc2c1cc(C(=O)NC(=N)N)n2C [Example 1, 2-[[[amino(imino)methyl]amino]-carbonyl]-1,4-dimethyl-1H-indol-5-yl Hydrogen Sulfate]
200		Cc1ccc(OS(=O)(=O)O)c2c1cc(C(=O)NC(=N)N)n2C [Example 4, 2-[[[amino(imino)methyl]amino]-carbonyl]-1,4-dimethyl-1H-indol-7-yl Hydrogen Sulfate]
	283 to 284 °C (dec.)	Cn1c(C(=O)NC(=N)N)cc2ccc(OS(=O)(=O)O)cc21 (as salt: sulfate) [Example 7, 2-[[[Amino(imino)methyl]amino]carbonyl]-1-methyl-1H-indol-6-yl Hydrogen Sulfate]
	260 to 270 °C (dec.)	Cc1cc(OCC(=O)O)cc2c1cc(C(=O)NC(=N)N)n2C [Example 25, [[2-[[[Amino(imino)methyl]amino]carbonyl]-1,4-dimethyl-1H-indol-6-yl]oxy]acetic Acid]
	338 °C (dec.)	Cn1c(C(=O)NC(=N)N)cc2c(Cl)ccc(OS(=O)(=O)O)c21 (as salt: sulfate) [Example 14, 2-[[[Amino(imino)methyl]amino]carbonyl]-4-chloro-1-methyl-1H-indol-7-yl Hydrogen Sulfate]
	≥ 300 °C (dec.)	Cc1cc(CCS(=O)(=O)O)cc2c1cc(C(=O)NC(=N)N)n2C [Example 42, 2-[2-[[[Amino(imino)methyl]amino]carbonyl]-1,4-dimethyl-1H-indol-6-yl]ethanesulfonic Acid]
	249 to 250 °C (dec.)	Cn1c(C(=O)NC(=N)N)cc2c(OS(=O)(=O)O)cccc21 (as salt: sulfate) [Example 5, 2-[[[Amino(imino)methyl]amino]carbonyl]-1-methyl-1H-indol-4-yl Hydrogen Sulfate]
